# Source: PubChem BioAssay (NCI)
#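 Protocol summary: plate cells (96-well), add compound at 5 concentrations, incubate 48 h, interpolate endpoints linearly. GI50 is the concentration that inhibits growth by half. Definition used: TGI = concentration required for complete inhibition of growth.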
# Assays:
# Assay in all cases: NCI tumour cell line growth inhibition, 48 h
# CAKI-1 renal = system: CAKI-1 renal
# LXFL 529 NSCLC = system: LXFL 529 NSCLC
# M19-MEL melanoma = system: M19-MEL melanoma
# MOLT-4 leukemia = system: MOLT-4 leukemia
# RPMI-8226 leukemia = system: RPMI-8226 leukemia
# UACC-257 melanoma = system: UACC-257 melanoma
# LOX IMVI melanoma = system: LOX IMVI melanoma
# BT-549 breast = system: BT-549 breast
# MCF7 breast = system: MCF7 breast
# T-47D breast = system: T-47D breast
Structure (SMILES),TGI (CAKI-1 renal) [µM],TGI (LXFL 529 NSCLC) [µM],TGI (M19-MEL melanoma) [µM],TGI (MOLT-4 leukemia) [µM],TGI (RPMI-8226 leukemia) [µM],TGI (UACC-257 melanoma) [µM],TGI (LOX IMVI melanoma) [µM],GI50 (BT-549 breast) [µM],TGI (BT-549 breast) [µM],GI50 (CAKI-1 renal) [µM],GI50 (LOX IMVI melanoma) [µM],GI50 (MCF7 breast) [µM],TGI (MCF7 breast) [µM],GI50 (MOLT-4 leukemia) [µM],GI50 (RPMI-8226 leukemia) [µM],GI50 (T-47D breast) [µM],TGI (T-47D breast) [µM],GI50 (UACC-257 melanoma) [µM]
CC(=O)O[C@@]1(C)[C@@H](C)C(=O)O[C@@H]2CCN3CC=C(COC(=O)[C@]1(C)O)[C@H]23,> 100,> 100,> 100,> 100,> 100,> 100,–,–,–,–,–,–,–,–,–,–,–,–
Cc1cccc2c1CCC21OC(=O)c2c1ccc1ccccc21 (stereo not drawn),> 100,> 100,> 100,79.8,–,85.5,> 100,–,–,–,–,–,–,–,–,–,–,–
COc1ccc2oc(C(=O)O)c3c2c1CCC3CCC(=O)O (stereo not drawn),–,> 100,> 100,> 100,> 100,> 100,> 100,–,–,–,–,–,–,–,–,–,–,–
Cn1c(N)nc(=O)c2c1N(C1OC(CO)C(O)C1O)CN2Cc1ccccc1 (stereo not drawn),> 100,> 100,> 100,> 100,> 100,> 100,–,–,–,–,–,–,–,–,–,–,–,–
O=C1C2C(C(=O)N1c1ccccc1)C1([N+](=O)[O-])C=C3c4ccccc4N(C(=O)c4ccccc4)C32C2C(=O)N(c3ccccc3)C(=O)C21 (stereo not drawn),> 100,> 100,> 100,> 100,–,> 100,> 100,–,–,–,–,–,–,–,–,–,–,–
CCc1cc(CCC(=O)Nc2ccccc2[N+](=O)[O-])[nH]c(=S)n1,–,> 100,> 100,> 100,–,> 100,> 100,–,–,–,–,–,–,–,–,–,–,–
C=C(C(=C)N1N=NC2C3CCC(C3)C21)N1N=NC2C3CCC(C3)C21 (stereo not drawn),> 100,> 100,> 100,> 100,–,> 100,> 100,–,–,–,–,–,–,–,–,–,–,–
O=C(N/N=C1\C(=O)N(c2nccs2)C(=O)C(=O)C1c1nc2ccccc2s1)c1ccccc1O (stereo not drawn),> 100,> 100,> 100,–,> 100,> 100,> 100,–,–,–,–,–,–,–,–,–,–,–
Oc1c(Cl)cc(Cl)cc1C(c1cc(Cl)cc(Cl)c1O)C(Cl)(Cl)Cl,2.06,–,–,10.4,54.2,9.18,5.57,2.27,6.93,0.472,2.08,2.7,14.2,3.67,1.8,2.39,11.3,3.33
COc1cc(C2=N/C(=C/c3cccs3)C(=O)O2)cc(OC)c1OC,> 100,–,–,> 100,> 100,> 100,> 100,–,> 100,–,–,–,> 100,–,–,–,> 100,–
CCCN(CCC)c1ccc(/C=N/NC(=O)c2cccnc2)c(OC)c1,93.2,–,–,51.7,> 100,67.6,> 100,28.4,84.8,21.5,23.6,19.1,89.1,22.8,34.5,17.3,50.8,20.7
COc1cc(-c2csc(NC(=O)Nc3ccc(C(F)(F)F)cc3)n2)cc(OC)c1OC,8.62,–,–,5.46,8.69,5.91,3.15,2.22,6.94,2.41,1.59,2.21,7.66,1.85,2.26,1.97,7.65,2.47
